Experimental data reported in US9346810B2, “Pyrrolopyrimidine compounds and uses thereof” (HUTCHISON MEDIPHARMA LIMITED, priority 2010, dated 2016).
Like-named read-outs stand apart in the source and are kept apart here.

Key:
[1] = biological target: Recombinant human JAK2 catalytic domain (Homo sapiens (Human), UniProt O60674); assay: JAK2 kinase assay (Z'-LYTE, Tyr 6 Peptide); format: biochemical
Experimental: (§1) JAK1/2/3 kinase assay are performed in vitro using Kit-Tyr 6 Peptide (Invitrogen, Cat. No. PV4122). TYK2 kinase assay are performed in vitro using Z′-LYTE™ Kinase Assay Kit-Tyr 3 Peptide (Invitrogen, Cat. No. PV3192). […] All compounds are initially tested at 8 different concentrations (1 μM down to 0.0003 μM) using a 1:3 serial dilution scheme.

[2] = biological target: Recombinant human JAK3 catalytic domain (Homo sapiens (Human), UniProt P52333); assay: JAK3 kinase assay (Z'-LYTE, Tyr 6 Peptide); format: biochemical
Recombinant human JAK3 catalytic domain, sequence (P52333 822-1111): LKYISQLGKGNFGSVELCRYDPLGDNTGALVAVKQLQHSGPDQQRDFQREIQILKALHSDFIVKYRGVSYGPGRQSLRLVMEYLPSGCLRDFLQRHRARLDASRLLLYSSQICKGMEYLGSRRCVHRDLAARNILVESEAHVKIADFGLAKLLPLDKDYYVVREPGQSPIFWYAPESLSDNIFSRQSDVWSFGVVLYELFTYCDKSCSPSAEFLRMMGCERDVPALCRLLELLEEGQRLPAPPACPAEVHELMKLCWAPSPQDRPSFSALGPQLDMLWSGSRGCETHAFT
Experimental: as §1

[3] = read-out: IC50 in JAK2 kinase assay
[4] = read-out: IC50 in JAK3 kinase assay

Recombinant human JAK2 catalytic domain, sequence (O60674 849-1124): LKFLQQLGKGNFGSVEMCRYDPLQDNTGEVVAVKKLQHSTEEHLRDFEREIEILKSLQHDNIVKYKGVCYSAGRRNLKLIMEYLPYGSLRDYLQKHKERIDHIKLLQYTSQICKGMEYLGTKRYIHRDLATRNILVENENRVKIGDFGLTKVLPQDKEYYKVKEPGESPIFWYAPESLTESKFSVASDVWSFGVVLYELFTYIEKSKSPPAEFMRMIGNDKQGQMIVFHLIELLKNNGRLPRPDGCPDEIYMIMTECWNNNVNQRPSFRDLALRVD

Structure (SMILES) | IC50 [1, 3] | IC50 [2, 4] | IC50 ([2]; read-out: JAK3 (enzyme, IC50)) | IC50 ([1]; read-out: JAK2 (enzyme, IC50))
CCCC(=O)N(C)[C@@H]1CCN(c2ncnc3[nH]ccc23)C1 [Compound 3] | 100 to 1000 nM |  |  | 
CN([C@@H]1CCN(c2ncnc3[nH]ccc23)C1)S(=O)(=O)c1cccc([N+](=O)[O-])c1 [Compound 12] | 100 to 1000 nM |  |  | 
CN(C(=O)Nc1ccc(C#N)cc1)[C@@H]1CCN(c2ncnc3[nH]ccc23)C1 [Compound 17] | 100 to 1000 nM | 100 to 1000 nM |  | 
N#Cc1ccc2c(c1)CCN2C1CCN(c2ncnc3[nH]ccc23)C1 (stereo not shown) [Compound 46] | 1 to 100 nM |  |  | 
CCS(=O)(=O)N(C)[C@@H]1CCN(c2ncnc3[nH]ccc23)C1 [Compound 48] | 1 to 100 nM | 100 to 1000 nM |  | 
CC(C)S(=O)(=O)N(C)[C@@H]1CCN(c2ncnc3[nH]ccc23)C1 [Compound 49] | 100 to 1000 nM |  |  | 
CN(C1CCCC1)[C@@H]1CCN(c2ncnc3[nH]ccc23)C1 [Compound 53] | 100 to 1000 nM |  |  | 
N#CCN(C1CC1)[C@@H]1CCN(c2ncnc3[nH]ccc23)C1 [Compound 55] | 100 to 1000 nM |  |  | 
C#CCN(C1CCOC1)[C@@H]1CCN(c2ncnc3[nH]ccc23)C1 (stereo partly shown) [Compound 56] | 100 to 1000 nM |  |  | 
CN(c1ccc(C#N)nn1)[C@@H]1CCN(c2ncnc3[nH]ccc23)C1 [Compound 60] | 1 to 100 nM | 100 to 1000 nM |  | 
Cc1cc(N(C)[C@@H]2CCN(c3ncnc4[nH]ccc34)C2)nc(Cl)c1C#N [Compound 72] | 100 to 1000 nM |  |  | 
CN(c1nc(Cl)nc2ccccc12)[C@@H]1CCN(c2ncnc3[nH]ccc23)C1 [Compound 79] | 100 to 1000 nM | 100 to 1000 nM |  | 
CN(c1ccc(C#N)c(Cl)n1)[C@@H]1CCN(c2ncnc3[nH]ccc23)C1 [Compound 90] | 100 to 1000 nM |  |  | 
CN(c1cccc(C#N)n1)[C@@H]1CCN(c2ncnc3[nH]ccc23)C1 [Compound 91] | 1 to 100 nM | 100 to 1000 nM |  | 
CN(c1ccc(C#N)cn1)[C@@H]1CCN(c2ccnc3[nH]ccc23)C1 [Compound 92] | 1 to 100 nM | 100 to 1000 nM |  | 
CN(c1ncc(Br)cn1)[C@@H]1CCN(c2ncnc3[nH]ccc23)C1 [Compound 94] | 1 to 100 nM | 100 to 1000 nM |  | 
CN(c1ncc(C#N)cc1[N+](=O)[O-])[C@@H]1CCN(c2ncnc3[nH]ccc23)C1 [Compound 96] | 100 to 1000 nM | 100 to 1000 nM |  | 
CN(c1ccc(C#N)cn1)[C@H]1CCN(c2ncnc3[nH]ccc23)C1 [Compound 102] | 1 to 100 nM | 100 to 1000 nM |  | 

Structure (SMILES) | IC50 [1, 3] | IC50 [2, 4] | IC50 ([2]; read-out: JAK3 (enzyme, IC50)) | IC50 ([1]; read-out: JAK2 (enzyme, IC50))
CN(c1ccc(C#N)cc1[N+](=O)[O-])[C@@H]1CCN(c2ncnc3[nH]ccc23)C1 [Compound 107] | 100 to 1000 nM | 100 to 1000 nM |  | 
CN(c1ccc(C#N)c(Br)c1)[C@@H]1CCN(c2ncnc3[nH]ccc23)C1 [Compound 114] | 1 to 100 nM | 100 to 1000 nM |  | 
C#CCN(c1c(F)cc(C#N)cc1F)[C@@H]1CCN(c2ncnc3[nH]ccc23)C1 [Compound 129] | 1 to 100 nM | 1 to 100 nM |  | 
C#CCN(c1ccc(C#N)cc1F)[C@@H]1CCN(c2ncnc3[nH]ccc23)C1 [Compound 130] | 100 to 1000 nM |  |  | 
C#CCN(c1ccc(C#N)cc1)[C@@H]1CCN(c2ncnc3[nH]ccc23)C1 [Compound 131] | 1 to 100 nM | 100 to 1000 nM |  | 
CN(c1ccc(-c2cccs2)cn1)[C@@H]1CCN(c2ncnc3[nH]ccc23)C1 [Compound 147] | 100 to 1000 nM |  |  | 
CN(c1ccccn1)[C@@H]1CCN(c2ncnc3[nH]ccc23)C1 [Compound 156] | 1 to 100 nM | 100 to 1000 nM |  | 
CN(c1ncc(C#N)cc1F)[C@@H]1CCN(c2ncnc3[nH]ccc23)C1 [Compound 158] | 100 to 1000 nM |  |  | 
CN(c1ncccc1C#N)[C@@H]1CCN(c2ncnc3[nH]ccc23)C1 [Compound 159] | 1 to 100 nM | 100 to 1000 nM |  | 
CN(c1ccc(-c2nn[nH]n2)cn1)[C@@H]1CCN(c2ncnc3[nH]ccc23)C1 [Compound 160, (R)—N-(1-(7H-pyrrolo[2,3-d]pyrimidin-4-yl)pyrrolidin-3-yl)-N-methyl-5-(2H-tetrazol-5-yl)pyridin-2-amine] | 100 to 1000 nM |  |  | 
CN(c1ccc2nn[nH]c2n1)[C@@H]1CCN(c2ncnc3[nH]ccc23)C1 [Compound 167, (R)—N-(1-(7H-pyrrolo[2,3-d]pyrimidin-4-yl)pyrrolidin-3-yl)-N-methyl-3H-[1,2,3]triazolo[4,5-b]pyridin-5-amine] | 100 to 1000 nM |  |  | 
CN(c1ccc(C(=O)O)cn1)[C@@H]1CCN(c2ncnc3[nH]ccc23)C1 [Compound 170, (R)-6-((1-(7H-pyrrolo[2,3-d]pyrimidin-4-yl)pyrrolidin-3-yl)(methyl)amino)nicotinic acid] | 100 to 1000 nM |  |  | 
CN(c1ccc(C(=O)Nc2cccc(Cl)c2)cc1F)[C@@H]1CCN(c2ncnc3[nH]ccc23)C1 [Compound 185] | 1 to 100 nM |  |  | 
CN(c1ccc(C(=O)Nc2ccccc2F)cn1)[C@@H]1CCN(c2ncnc3[nH]ccc23)C1 [Compound 192] | 1 to 100 nM |  |  | 
CN(c1ccc(C(=O)NC(CO)c2ccccc2Cl)cc1F)[C@@H]1CCN(c2ncnc3[nH]ccc23)C1 (stereo partly shown) [Compound 207] | 100 to 1000 nM |  |  | 
CN(c1ccc(NS(=O)(=O)c2ccc(F)cc2)cn1)[C@@H]1CCN(c2ncnc3[nH]ccc23)C1 [Compound 212] | 1 to 100 nM |  |  | 
CN(c1ccc(S(N)(=O)=O)cn1)[C@@H]1CCN(c2ncnc3[nH]ccc23)C1 [Compound 234] |  |  | 86.3 nM | 

Second part, the molecule after the results:

IC50 [1, 3] | IC50 [2, 4] | IC50 ([2]; read-out: JAK3 (enzyme, IC50)) | IC50 ([1]; read-out: JAK2 (enzyme, IC50)) | Structure (SMILES)
100 to 1000 nM |  |  |  | CN(C(=O)C1(C#N)CC1)[C@@H]1CCN(c2ncnc3[nH]ccc23)C1 [Compound 6]
100 to 1000 nM |  |  |  | CN([C@@H]1CCN(c2ncnc3[nH]ccc23)C1)S(=O)(=O)c1cccc(C#N)c1 [Compound 10]
 | 100 to 1000 nM |  |  | CN(C(=O)CC(F)(F)F)[C@@H]1CCN(c2ncnc3[nH]ccc23)C1 [Compound 25]
1 to 100 nM | 100 to 1000 nM |  |  | C=CCN(C1CCCC1)[C@@H]1CCN(c2ncnc3[nH]ccc23)C1 [Compound 40]
1 to 100 nM | 100 to 1000 nM |  |  | N#Cc1ccc(N(C2CC2)[C@@H]2CCN(c3ncnc4[nH]ccc34)C2)nc1 [Compound 41]
1 to 100 nM |  | 157 nM | 98 nM | CNS(=O)(=O)N(C)[C@@H]1CCN(c2ncnc3[nH]ccc23)C1 [Compound 47]
100 to 1000 nM |  |  |  | N#CCN(C1CCC1)[C@@H]1CCN(c2ncnc3[nH]ccc23)C1 [Compound 52]
100 to 1000 nM |  |  |  | C#CCN(c1ccc(S(C)(=O)=O)cn1)[C@@H]1CCN(c2ncnc3[nH]ccc23)C1 [Compound 58]
1 to 100 nM | 100 to 1000 nM |  |  | CN(c1ccc(C(F)(F)F)nn1)[C@@H]1CCN(c2ncnc3[nH]ccc23)C1 [Compound 62]
1 to 100 nM | 100 to 1000 nM |  |  | CN(CCC#N)[C@@H]1CCN(c2ncnc3[nH]ccc23)C1 [Compound 64]
1 to 100 nM | 1 to 100 nM |  |  | CN(c1ccc(F)cn1)[C@@H]1CCN(c2ncnc3[nH]ccc23)C1 [Compound 66]
100 to 1000 nM | 100 to 1000 nM |  |  | CN(c1ccc([N+](=O)[O-])cn1)[C@@H]1CCN(c2ncnc3[nH]ccc23)C1 [Compound 70]
1 to 100 nM | 100 to 1000 nM |  |  | CN(c1ccc(C#N)cn1)[C@@H]1CCN(c2ncnc3[nH]ccc23)C1 [Compound 71]
1 to 100 nM | 100 to 1000 nM |  |  | Cc1cc(Cl)nc(N(C)[C@@H]2CCN(c3ncnc4[nH]ccc34)C2)c1C#N [Compound 73]
1 to 100 nM | 100 to 1000 nM |  |  | CN(c1ncnc2ccccc12)[C@@H]1CCN(c2ncnc3[nH]ccc23)C1 [Compound 80]
1 to 100 nM | 100 to 1000 nM |  |  | N#Cc1ccc(N[C@@H]2CCN(c3ncnc4[nH]ccc34)C2)nc1 [Compound 81]
100 to 1000 nM |  |  |  | CN(c1ncc(C#N)cc1Cl)[C@@H]1CCN(c2ncnc3[nH]ccc23)C1 [Compound 83]

IC50 [1, 3] | IC50 [2, 4] | IC50 ([2]; read-out: JAK3 (enzyme, IC50)) | IC50 ([1]; read-out: JAK2 (enzyme, IC50)) | Structure (SMILES)
 | 100 to 1000 nM |  |  | CN(c1cnc(C#N)cn1)[C@@H]1CCN(c2ncnc3[nH]ccc23)C1 [Compound 84]
100 to 1000 nM |  |  |  | CN(c1ccc(Cl)nn1)[C@@H]1CCN(c2ncnc3[nH]ccc23)C1 [Compound 85]
1 to 100 nM | 100 to 1000 nM |  |  | CN(c1nc(Cl)c(C#N)cc1F)[C@@H]1CCN(c2ncnc3[nH]ccc23)C1 [Compound 87]
100 to 1000 nM |  |  |  | CN(c1ncc(Br)cc1C#N)[C@@H]1CCN(c2ncnc3[nH]ccc23)C1 [Compound 89]
1 to 100 nM | 100 to 1000 nM |  |  | CCCN(c1ccc(C#N)cn1)[C@@H]1CCN(c2ncnc3[nH]ccc23)C1 [Compound 98]
1 to 100 nM | 100 to 1000 nM |  |  | CN(c1ncc(C#N)cc1Br)[C@@H]1CCN(c2ncnc3[nH]ccc23)C1 [Compound 99]
 |  | 359 nM | 48.7 nM | CN(c1ccc(C#N)c(F)c1)[C@@H]1CCN(c2ncnc3[nH]ccc23)C1 [Compound 105]
100 to 1000 nM |  |  |  | CN(c1c(F)cc(C#N)cc1F)[C@@H]1CCN(c2ncnc3[nH]ccc23)C1 [Compound 108]
1 to 100 nM | 100 to 1000 nM |  |  | CN(c1ccc(C#N)c2ccccc12)[C@@H]1CCN(c2ncnc3[nH]ccc23)C1 [Compound 111]
100 to 1000 nM |  |  |  | CN(c1ccc(C#N)cc1Br)[C@@H]1CCN(c2ncnc3[nH]ccc23)C1 [Compound 115]
100 to 1000 nM |  |  |  | CCOc1cnc(N(C)[C@@H]2CCN(c3ncnc4[nH]ccc34)C2)cn1 [Compound 136]
1 to 100 nM |  |  |  | Cc1cc(N(C)[C@@H]2CCN(c3ncnc4[nH]ccc34)C2)ncc1C#N [Compound 157]
1 to 100 nM |  |  |  | CN(c1ccc(C(=O)N[C@@H](CO)c2ccccc2)cn1)[C@@H]1CCN(c2ncnc3[nH]ccc23)C1 [Compound 176]
100 to 1000 nM |  |  |  | CN(C(=O)c1ccc(N(C)[C@@H]2CCN(c3ncnc4[nH]ccc34)C2)nc1)c1ccc(F)cc1 [Compound 178]
1 to 100 nM |  |  |  | CN(c1ccc(C(=O)N[C@@H](CO)c2ccccc2)cc1F)[C@@H]1CCN(c2ncnc3[nH]ccc23)C1 [Compound 179]
1 to 100 nM |  |  |  | CN(c1ccc(C(=O)NC(CO)c2ccc(Cl)cc2)cc1F)[C@@H]1CCN(c2ncnc3[nH]ccc23)C1 (stereo partly shown) [Compound 201]
